Here are results for three substances from patent EP0408371B1, “Hemoregulatory peptides” (SMITHKLINE BEECHAM CORPORATION, priority 1989, dated 1994).

The subject of experiment [1] is human bone marrow stromal cell line, C6. The experiment can be described thus: Induction of colony stimulating activity by stromal cells; supernatant tested in soft agar assay (CFU-C). It counts as cell-based. The following applies: 5% Supernatant, Lewis rat bone marrow cells. On the procedure: The human bone marrow stromal cell line, C6, is grown to confluency in plastic tissue culture dishes in RPMI-1640 medium and 5% FBS. On the day prior to the experiment this medium is changed to DMEM without added serum. To these cultures, the compounds are added for one hour, then washed from the cultures. The medium is replaced with fresh DMEM and the cells are incubated for 24 hours at 37°C, 5% CO₂. After 24 hours the C6 cell culture supernatant is collected, sterile filtered, and frozen until it can be assayed for the presence of hematopoietic colony stimulating activity (CSA) as set forth below.
Bone marrow cells are obtained from Lewis rats. They are adjusted to 10⁶ cells/ml in DMEM without serum. A single later agar system utilizing the following is used: DMEM enriched with nutrients (NaHCO₃, pyruvate, amino acids, vitamins, and HEPES buffer); 0.3% Bacto agar, and 20% Lewis rat serum. To this are added dilutions of C6 cell line supernatant (10-2.5%) from above along with rat bone marrow cells (final concentration = 10⁵ cells/ml). The agar plates are incubated at 37°C, 5% CO₂ for 7-8 days. Colonies of proliferating bone marrow cells (CFU-C) are counted utilizing a microscope. The number of agar colonies counted is proportional to the amount of CSA present within the C6 bone marrow stromal cell line supernatant.

The subject of experiment [2] is murine myelopoietic cells. The following applies: in vivo; cited from earlier work.
The subject of experiment [3] is human CFU-gm. To be noted: human CFU-gm in vitro; cited from earlier work.
The subject of experiment [4] is murine CFU-gm. To be noted: murine CFU-gm in vitro; cited from earlier work.
Experiment [5] concerns myelopoietic cells. To be noted: in vitro; cited from earlier work.
In experiment [6] the test system is myelopoietic cells. To be noted: in vivo; cited from earlier work.

Read-outs that look alike come from different tables or passages of the source. Square brackets hold non-standard residues; d marks the D form. Ends that are not written are not given here. pGlu = O=C1CC[C@@H](C(=O)O)N1

As to (pGlu-Glu-Asp)₂-Sub-(Lys)₂ [Example 2], the “Hematopoietic Colony Stimulating Activity, Percent of Control” value in experiment [1] (Dose 0.01 ng/ml) is given as 97% of Control; in experiment [1] (Dose 0.1 ng/ml) it was 154% of Control; in experiment [1] (Dose 1 ng/ml) it was 188% of Control; in experiment [1] (Dose 10 ng/ml), 207% of Control; in experiment [1] (Dose 100 ng/ml), 241% of Control; in experiment [1] (Dose 1000 ng/ml), 192% of Control.
As for “HP-5: oxidation product of pGlu-Glu-Asp-Cys-Lys, a dimer formed by disulfide bridges (EP-A-0267741) ([pGlu]EDCK; also: disulfide-linked dimer (oxidation product))”, the “effect on murine myelopoietic cells” value in experiment [2] is “up regulates murine myelopoietic cells”. Further, the “colony formation of CFU-gm” value in experiment [3] and in experiment [4] was “strongly stimulates colony formation” in each case.
Take pGlu-Glu-Asp-Cys-Lys ([pGlu]EDCK): the “effect on myelopoietic cells” value in experiment [5] and in experiment [6] was “selective inhibitory effect” in each case.
